Earlier results in patent US12268783B2, “Platform drug delivery system utilizing crystal engineering and theanine dissolution” (THEAPRIN PHARMACEUTICALS, INC., priority 2015, dated 2025).

How the values were obtained:
[1] = in humans (so in the source)
[2] = tested on: human dopaminergic cell line SH-SY5Y; settings: SH-SY5Y cultures subjected to rotenone and dieldrin, treated or pre-treated with L-Theanine
[3] = tested on: APP (Swedish Mutation) transgenic SH-SY5Y cell; settings: via inhibition of the NMDA receptor pathway
rat brain regions = settings: rat cerebral cortex, hippocampus and cerebellum
cancer cells = settings: without an increase in DOX-induced side effects
[4] = tested on: human red blood cells (RBC) exposed to venom or purified venom porin; settings: RBC exposed to total venom or purified porin

Compound | LD50 toxicity [1] [mg/kg] | DNA fragmentation and apoptotic cell death [2] | protection against glutamate-induced excitotoxicity [3] | protective effect against aluminum-induced neurotoxicity (rat brain regions) | effect on antitumor activity of doxorubicin (DOX) (cancer cells) | potassium efflux from RBC [4]
CCNC(=O)CC[C@H](N)C(=O)O [Theanine, 5-N-ethyl-glutamine] | > 5000 | decreased DNA fragmentation and apoptotic cell death | protects | counteracting the damage inflicted by aluminum | enhances the antitumor activity of doxorubicin | 
zinc gluconate |  |  |  |  |  | inhibited potassium efflux
